Counter-ions that a name gives are not always drawn.
Key:
[1] = molecular target: T1, reuptake of serotonine (5-HT) in synaptosomes (Rattus norvegicus, UniProt P31652); assay: Inhibition of serotonin reuptake in synaptosomes; format: biochemical
T1 construct: in synaptosomes as described in WO 97/16451; from tissue
Experimental: A number of compounds were tested for their ability to inhibit the reuptake of the monoamine neurotransmitters dopamine (DA) noradrenaline (NA) and serotonine (5-HT) in synaptosomes as described in WO 97/16451.
The test values are given as IC50 (the concentration (μM) of the test substance which inhibits the specific binding of ^3H-DA, ^3H-NA, or ^3H-5-HT by 50%).

[2] = molecular target: T2, reuptake of dopamine (DA) in synaptosomes (Rattus norvegicus, UniProt P23977); assay: Inhibition of dopamine reuptake in synaptosomes; format: biochemical; details: 3H-DA, read-out: DA-uptake IC50
T2 construct: in synaptosomes as described in WO 97/16451; from tissue
T2 sequence (P23977 whole entry): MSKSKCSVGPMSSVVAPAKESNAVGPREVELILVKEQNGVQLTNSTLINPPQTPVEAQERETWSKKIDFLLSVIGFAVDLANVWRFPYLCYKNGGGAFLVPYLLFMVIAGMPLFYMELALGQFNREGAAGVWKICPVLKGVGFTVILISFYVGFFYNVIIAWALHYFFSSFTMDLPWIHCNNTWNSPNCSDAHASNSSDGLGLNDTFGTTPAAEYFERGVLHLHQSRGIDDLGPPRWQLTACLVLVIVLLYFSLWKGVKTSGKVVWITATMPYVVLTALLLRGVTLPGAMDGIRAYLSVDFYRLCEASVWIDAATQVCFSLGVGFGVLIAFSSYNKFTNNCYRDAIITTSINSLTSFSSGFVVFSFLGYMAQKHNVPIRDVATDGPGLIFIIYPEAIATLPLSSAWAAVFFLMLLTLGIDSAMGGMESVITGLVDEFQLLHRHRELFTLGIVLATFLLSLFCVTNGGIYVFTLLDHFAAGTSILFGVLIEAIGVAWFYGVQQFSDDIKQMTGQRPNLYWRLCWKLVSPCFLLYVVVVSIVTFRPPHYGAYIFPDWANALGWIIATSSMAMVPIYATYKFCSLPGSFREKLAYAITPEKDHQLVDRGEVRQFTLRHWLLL

T1 sequence (P31652 whole entry): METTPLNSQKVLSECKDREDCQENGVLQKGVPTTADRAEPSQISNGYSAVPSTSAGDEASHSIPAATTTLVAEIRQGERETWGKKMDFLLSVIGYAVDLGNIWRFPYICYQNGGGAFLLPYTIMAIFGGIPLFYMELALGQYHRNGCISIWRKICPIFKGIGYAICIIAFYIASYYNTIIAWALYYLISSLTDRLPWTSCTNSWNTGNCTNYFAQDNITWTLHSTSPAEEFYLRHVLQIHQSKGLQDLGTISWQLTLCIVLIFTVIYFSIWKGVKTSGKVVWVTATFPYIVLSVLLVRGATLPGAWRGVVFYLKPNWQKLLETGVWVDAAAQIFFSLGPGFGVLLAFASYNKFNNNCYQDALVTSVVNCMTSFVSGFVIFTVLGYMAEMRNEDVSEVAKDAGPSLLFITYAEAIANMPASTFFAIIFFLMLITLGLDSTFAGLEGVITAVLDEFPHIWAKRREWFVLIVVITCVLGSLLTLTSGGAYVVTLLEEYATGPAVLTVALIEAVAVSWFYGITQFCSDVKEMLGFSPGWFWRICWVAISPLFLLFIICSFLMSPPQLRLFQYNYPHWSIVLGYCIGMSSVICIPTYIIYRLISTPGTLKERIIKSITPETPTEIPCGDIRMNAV

COc1ccc2cc(OC3CC4CCC(C3)N4)ccc2c1 (stereo not drawn) (as salt: hydrochloric acid salt) [First compound of Example A, exo-3-(6-Methoxy-naphthalen-2-yloxy)-8-aza-bicyclo[3.2.1]octane]
melting point: 237 to 239 °C

COc1ccc2ccc(OC3CC4CCC(C3)N4)cc2c1 (stereo not drawn) (as salt: hydrochloric acid salt) [Last compound of Example A, exo-3-(7-Methoxy-naphthalen-2-yloxy)-8-aza-bicyclo[3.2.1]octane]
melting point: 225 °C

COc1ccc2cc(OC3CC4CCC(C3)N4)ccc2c1 (stereo not drawn) [First compound of Example A, exo-3-(6-Methoxy-naphthalen-2-yloxy)-8-aza-bicyclo[3.2.1]octane]
IC50 [1]: 26 nM | IC50 [2]: 420 nM

COc1ccc2ccc(OC3CC4CCC(C3)N4)cc2c1 (stereo not drawn) [Last compound of Example A, exo-3-(7-Methoxy-naphthalen-2-yloxy)-8-aza-bicyclo[3.2.1]octane]
IC50 [1]: 0.42 nM | IC50 [2]: 1400 nM

— patent publication US8110586B2, “8-aza-bicyclo[3.2.1]octane derivatives and their use as monoamine neurotransmitter re-uptake inhibitors” (Neurosearch A/S, priority 2006, dated 2012)
